No end group written: not given here.
How the values were obtained:
Alternaria alternata = experiment: MIC, antifungal in-vitro inhibition assay (Example 2); assay type: cell-based; details: Table 1
Protocol: (§1) In-vitro inhibition assays were performed in sterile flat-bottom 96-well plates (Greiner bio-one, Frickenhausen). Antimicrobial peptides were dissolved in 0.01% acetic acid containing 0.2% BSA (500 μg/ml), filter sterilized and stored at −20° C. For inhibition assays dilutions of peptides ranging from 5 to 200 μg/ml were prepared and 10 μl (antibacterial assay) or 20 μl (antifungal assay) of each concentration was loaded per well.
(§2) Spores of fungi were collected by water washes of sporulating cultures grown on 2% malt extract agar and spore concentration was determined by microscopy. The concentration of the spores was adjusted to 1.5-2×10^3 spores/ml in 2% malt extract medium and 80 μl of fungal spores were added per well. The final peptide concentrations used in the fungal inhibition assays were […]. After overnight incubation at room temperature the plate were put on a rotary shaker (300 rpm) for further two days to ensure consistantly growth. Antifungal effects of the peptides were determined by a microplate reader (Alternaria, Fusarium) at OD590 nm or by visual screening of the plates (Botrytis, Cladosporium).
(§3) The lowest peptide concentration leading to complete inhibition of bacterial growth or spore germination/mycelial growth (minimal inhibition concentration, MIC) was determined for each organism-peptide combination. For each peptide concentration two identical inhibition assays were performed.

Botrytis cinerea = experiment: as above; assay type: cell-based; details: Table 1
Protocol: as §1, §2, §3

Cladosporium herbarum = experiment: as above; assay type: cell-based; details: Table 1
Protocol: as §1, §2, §3

[1] = tested on: Clavibacter michiganensis; experiment: MIC and lethal concentration (Example 3); assay type: cell-based; details: Table 2
Summary of the method: (§4)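 MIC defined as lowest peptide concentration giving >90% inhibition (no observable growth) of bacteria diluted 1:100 in LB-/HPG-medium from OD600 nm=0.08-0.1 suspensions; peptides at final 0–20 μg/ml.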

[2] = tested on: Pectobacterium carotovorum; experiment: MIC and lethal concentration (Example 3); assay type: cell-based; details: Table 2
Summary of the method: as §4

Pseudomonas corrugata [3] = experiment: MIC and lethal concentration (Example 3); assay type: cell-based; details: Table 2
Summary of the method: as §4

[4] = tested on: Pseudomonas syringae pv. syringae; experiment: MIC and lethal concentration (Example 3); assay type: cell-based; details: Table 2
Summary of the method: as §4

[5] = tested on: Pseudomonas syringae pv. tomato; experiment: MIC and lethal concentration (Example 3); assay type: cell-based; details: Table 2
Summary of the method: as §4

Xanthomonas vesicatoria [6] = experiment: MIC and lethal concentration (Example 3); assay type: cell-based; details: Table 2
Summary of the method: as §4

Enterobacter cloacae = assay type: cell-based
Protocol: (§5) In-vitro inhibition assays were performed in sterile ELISA-plates (Greiner bio-one, Frickenhausen or Nunc, Wiesbaden). Antimicrobial peptides were dissolved in 0.01% acetic acid containing 0.2% BSA and stored at −20° C. […] After incubation for one day at 27° C. growth inhibition of the bacteria was analyzed by a ELISA microplate reader.

Escherichia coli (DH5α) = assay type: cell-based; details: DH5α
Protocol: as §5

Klebsiella pneumoniae = assay type: cell-based
Protocol: as §5

Klebsiiella oxytoca = assay type: cell-based
Protocol: as §5

Pseudomonas aeruginosa = assay type: cell-based
Protocol: as §5

Staphylococcus aureus = assay type: cell-based
Protocol: as §5

[7] = tested on: Staphylococcus epidermidis; assay type: cell-based
Protocol: as §5

Yersinia enterocolitica = assay type: cell-based
Protocol: as §5

[8] = tested on: Clavibacter michiganensis sub. michiganensis; details: overnight 25° C., Table 1
[9] = tested on: Pectobacterium carotovorum sub. carotovorum
Xanthomonas vesicatoria [10] = tested on: Xanthomonas vesicatoria
[11] = tested on: Pseudomonas syringae pv. tomato
[12] = tested on: Pseudomonas syringae pv. syringae
Pseudomonas corrugata [13] = tested on: Pseudomonas corrugata

LRFLKKILKHLF-NH2 [SP10, LRFLKKILKHLF -NH2]
Minimal inhibition concentration (MIC) for complete inhibition of spore germination/mycelial growth (Alternaria alternata): >100 µg/mL
Minimal inhibition concentration (MIC) for complete inhibition of spore germination/mycelial growth (Botrytis cinerea): >100 µg/mL
Minimal inhibition concentration (MIC) for complete inhibition of spore germination/mycelial growth (Cladosporium herbarum): 10 µg/mL
MIC (>90% inhibition) ([1]; 1-2 days at 25° C.): 0.5/0.5 μg/ml
LC, lethal concentration (100% inhibition) ([1]; at least 4 days of incubation): 0.5/0.5 μg/ml
MIC (>90% inhibition) ([2]; 1-2 days at 25° C.): 1.0 µg/mL
LC, lethal concentration (100% inhibition) ([2]; at least 4 days of incubation): 2.5 µg/mL
MIC (>90% inhibition) (Pseudomonas corrugata [3]; 1-2 days at 25° C.): 0.5 µg/mL
LC, lethal concentration (100% inhibition) (Pseudomonas corrugata [3]; at least 4 days of incubation): 1.0 µg/mL
MIC (>90% inhibition) ([4]; 1-2 days at 25° C.): 0.5 µg/mL
LC, lethal concentration (100% inhibition) ([4]; at least 4 days of incubation): 1.0 µg/mL
MIC (>90% inhibition) ([5]; 1-2 days at 25° C.): 2.5/2.5 μg/ml
LC, lethal concentration (100% inhibition) ([5]; at least 4 days of incubation): 2.5/2.5 μg/ml
MIC (>90% inhibition) (Xanthomonas vesicatoria [6]; 1-2 days at 25° C.): 0.5/0.5 μg/ml
LC, lethal concentration (100% inhibition) (Xanthomonas vesicatoria [6]; at least 4 days of incubation): 0.5/0.5 μg/ml
MIC (>90% inhibition) (Enterobacter cloacae): 20 µg/mL
MIC (>90% inhibition) (Escherichia coli (DH5α)): 10 µg/mL
MIC (>90% inhibition) (Klebsiella pneumoniae): 20 µg/mL
MIC (>90% inhibition) (Klebsiiella oxytoca): 20 µg/mL
MIC (>90% inhibition) (Pseudomonas aeruginosa): 10 µg/mL
MIC (>90% inhibition) (Staphylococcus aureus): 5 µg/mL
MIC (>90% inhibition) [7]: 2 µg/mL
MIC (>90% inhibition) (Yersinia enterocolitica): 10 µg/mL
Minimal inhibition concentration (MIC) for complete inhibition of bacterial growth [8]: 10 µg/mL
Minimal inhibition concentration (MIC) for complete inhibition of bacterial growth [9]: 20 µg/mL
Minimal inhibition concentration (MIC) for complete inhibition of bacterial growth (Xanthomonas vesicatoria [10]): 5 µg/mL
Minimal inhibition concentration (MIC) for complete inhibition of bacterial growth [11]: 10 µg/mL
Minimal inhibition concentration (MIC) for complete inhibition of bacterial growth [12]: 10 µg/mL
Minimal inhibition concentration (MIC) for complete inhibition of bacterial growth (Pseudomonas corrugata [13]): 20 µg/mL
